For experiment [1], the system named is Mycobacterium tuberculosis. The experiment is described as follows: Growth inhibition of multi-drug resistant Mycobacterium tuberculosis 05TB42059. Type of experiment: functional.
In experiment [2] the test system is Mycobacterium tuberculosis. The experiment is described as follows: Growth inhibition of multi-drug resistant Mycobacterium tuberculosis DQ707 harboring katG S315N mutant. Type of experiment: functional.

Among the data in ChEMBL document CHEMBL4049411, “Rational Design, Synthesis, and Biological Evaluation of Heterocyclic Quinolones Targeting the Respiratory Chain of Mycobacterium tuberculosis” (J Med Chem, 2017) are IC50 values, retold here.

SMILES strings stand for the structures.

On to `Cc1c(-c2ccc(N3CCC(F)(F)C3)cc2)[nH]c2cc(F)cc(F)c2c1=O`, for which the IC50 (usually the concentration that inhibits the measured activity by half) in experiment [1] came out at 0.14 µM; in experiment [2], 0.548 µM.
